Laboratory results reported in PubChem BioAssay (NCI).
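Step 1: Grow cells in 96-well plates. Step 2: Expose to compound for 48 hours at 5 concentrations. Step 3: Interpolate endpoints linearly; if unreached, use highest concentration. GI50 is the concentration that inhibits growth by half. At the TGI there is no net growth.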

How the values were obtained:
Test in all cases: growth of human tumour cells (NCI), 48 h
[1] = system: HCT-116 colon
[2] = system: U251 CNS
[3] = system: DU-145 prostate
[4] = system: 786-0 renal
[5] = system: MDA-MB-231 breast
[6] = system: NCI/ADR-RES ovarian
[7] = system: HOP-62 NSCLC
[8] = system: TK-10 renal
[9] = system: BT-549 breast
[10] = system: CAKI-1 renal
[11] = system: HCC-2998 colon
[12] = system: T-47D breast
[13] = system: RPMI-8226 leukemia
[14] = system: HOP-92 NSCLC
[15] = system: SK-MEL-2 melanoma
[16] = system: KM12 colon
[17] = system: NCI-H23 lung
[18] = system: SK-OV-3 ovarian
[19] = system: ACHN renal
[20] = system: HT29 colon
[21] = system: COLO 205 colon
[22] = system: MCF7 breast
[23] = system: K-562 leukemia
[24] = system: MDA-MB-435
[25] = system: MOLT-4 leukemia
[26] = system: IGROV1 ovarian
[27] = system: LOX IMVI melanoma
[28] = system: MALME-3M melanoma
[29] = system: SR leukemia

Compound: CC(=O)OCCC/C(=C/c1cc2ccccc2c2ccccc12)[N+](=O)[O-]
- GI50 [1]: 1480 nM
- TGI [1]: 2800 nM
- GI50 [2]: 1430 nM
- TGI [2]: 2740 nM
- GI50 [3]: 1260 nM
- TGI [3]: 2510 nM
- GI50 [4]: 1680 nM
- TGI [4]: 3050 nM
- GI50 [5]: 1780 nM
- TGI [5]: 4300 nM
- GI50 [6]: 1990 nM
- TGI [6]: 4310 nM
- GI50 [7]: 1910 nM
- TGI [7]: 3500 nM
- GI50 [8]: 1690 nM
- TGI [8]: 3140 nM
- GI50 [9]: 1560 nM
- TGI [9]: 3260 nM
- GI50 [10]: 1210 nM
- TGI [10]: 2510 nM
- GI50 [11]: 1640 nM
- TGI [11]: 3000 nM
- GI50 [12]: 384 nM
- TGI [12]: 1870 nM
- GI50 [13]: 1270 nM
- TGI [13]: 5740 nM
- GI50 [14]: 1380 nM
- TGI [14]: 3700 nM
- GI50 [15]: 1540 nM
- TGI [15]: 2980 nM
- GI50 [16]: 1560 nM
- TGI [16]: 2890 nM
- GI50 [17]: 1570 nM
- TGI [17]: 3270 nM
- GI50 [18]: 2560 nM
- TGI [18]: 7380 nM
- GI50 [19]: 1640 nM
- TGI [19]: 3000 nM
- GI50 [20]: 1970 nM
- TGI [20]: 3720 nM
- GI50 [21]: 1670 nM
- TGI [21]: 3030 nM
- GI50 [22]: 545 nM
- TGI [22]: 1950 nM
- GI50 [23]: 1700 nM
- TGI [23]: 6870 nM
- GI50 [24]: 1460 nM
- TGI [24]: 3160 nM
- GI50 [25]: 2860 nM
- TGI [25]: > 23000 nM
- GI50 [26]: 1060 nM
- TGI [26]: 2810 nM
- GI50 [27]: 423 nM
- TGI [27]: 1080 nM
- GI50 [28]: 1550 nM
- TGI [28]: 3380 nM
- GI50 [29]: 495 nM
- TGI [29]: 4580 nM
